Where a name gives a salt, the structure may show the parent alone.
Tests used:
P388/0 tumor cells = assay: Lymphocytic Leukemia P388/0 Test; type: in vivo, CD2-F1 mice; conditions: median survival time; intraperitoneal, days 1, 5, 9; active if ≥120%; Optimal Dose (mg/kg): 2A 250; 2B 450; 3 120; 4 200; 5A 303; 6 366; 7 220; 8 300; 1A 300; 10 198; 11 300; 13 220; 15 555; 16 1013; 17B 250; 18 300; 19 40; 20G 125; 21C 168; 22D 180; 23B 18O
Text: (§1) Methods for evaluating the antitumor activity of these compounds are essentially those used in the Tumor Panel by the Development Therapeutics Program, Division of Cancer Treatment, National Cancer Institute, A. Goldin, et al., Methods in Cancer Research, Vol. XVI, p. 165, Academic Press (1979). Some modifications in dose level and schedule have been made to increase the testing efficiency.
(§2) CD2-F1 mice, of the same sex, weighing 20±3 g, are used for this test. Control and test animals are injected intraperitoneally with a suspension of ~10^6 viable P388/0 tumor cells on day 0. In each test, several dose levels which bracket the LD20 of the compound are evaluated; each dose level group contains 6 animals. The test compounds are prepared either in physiologic saline containing 0.05% Tween 80 or distilled water containing 5% dextrose and are administered intraperitoneally on days 1, 5, and 9 relative to tumor implant. Doses are on a mg/kg basis according to individual animals' body weights. The day of death for each animal is recorded, the median identified for each group and the ratios of median survival time for treated (T)/control (C) groups are calculated. The criterion for activity is T/C×100≥120%.

LD20 in the P388/0 test = type: in vivo, CD2-F1 mice; conditions: intraperitoneal, days 1, 5, 9, doses are on a mg/kg basis; for MTD: mouse, in vivo, ip, read-out: highest nontoxic dose (LD20 column, values in parentheses; LD20 was not determined)
Experimental: as §2

L1210 cells = assay: Lymphocytic Leukemia L1210 Test; type: in vivo, CD-2-F1 mouse; conditions: 150 mg/kg; protocol as P388/0 (intraperitoneal, days 1, 5, 9); active if ≥125%
Text: as §1, §2
The protocol for this test is identical to that for P388/0, except that the number of L1210 cells implanted on day 0 is ~105/mouse. […]

[1] = test system: Mycoplasma smegmatis (S3264); assay: Antibacterial screening, Mycoplasma smegmatis, agar dilution assay; type: cell-based
Text: (§3) Antibacterial testing against Mycoplasma smegmatis (S3264) and Streptococcus pyogens (CN10) was done with slight modifications using standard agar dilution assays as outlined in Manual of Clinical Microbiology, Second Ed., E. H. Lennette, E. H. Spaulding and J. P. Truant Eds., American Society for Microbiology, Washington, DC, 1974.

[2] = test system: Candida albicans (CN1863); assay: Antifungal screening, Candida albicans, broth and agar dilution assays; type: cell-based; conditions: Medium: Wellcotest sensitivity test agar plus 7% lysed horse blood
Text: Antifungal testing against Candida albicans (CN1863) was done with slight modifications using a combination of broth and agar dilution assays as outlined in Laboratory Handbook of Medical Mycology, Chapter 6, pages 441-446, M. R. McGinnis, Academic Press, New York, NY, 1980.
Medium: Wellcotest* sensitivity test agar plus 7% lysed horse blood.

Trichomonas vaginalis = assay: Antiprotozoal testing, Trichomonas vaginalis (in vitro); type: cell-based; conditions: 40 mg/L, Stenton or Modified Diamond's medium, read-out: Result (screen code, inhibition)
Text: Antiprotozoal testing against Trichomonas vaginalis was done using methods outlined by R. M. Michaels in Advances in Chemotherapy, 3, 39-108 (1968).
(Stenton or Modified Diamond's medium)

[3] = test system: Nippostrongylus brasiliensis (Immature - free living stages); assay: Anthelmintic screening, Nippostrongylus brasiliensis; type: cell-based
Text: Anthelmintic testing against Nippostrongylus brasiliensis was done using methods as outlined in D. C. Jenkins, R. Armitage, and T. S. Carrington, Zetschrift fur Parasitenkunde 63, 261-269 (1980).

LD50 Tests = conditions: in vivo; IP single dose - CD1 Male Mouse
Text: |(IP single dose - CD1 Male Mouse)

Lewis Lung Carcinoma = Lewis Lung Carcinoma Test; type: in vivo, mouse (BD-F1 mice; tumor from C57B1/6 mouse); conditions: 150 mg/kg; administered as in P388/0 protocol; active if ≥140%
Text: as §1
This tumor arose spontaneously in the lung of a C57B1/6 mouse and is maintained by subcutaneous passage in that strain. The solid tumor is excised aseptically and placed in sterile saline. Pieces of viable tumor tissue are minced finely with scissors and forced through a 200 mesh stainless steel screen to disaggregate the tumor cells into a suspension. 10^6 Viable cells and injected intravenously into the tail vein of BD-F1, mice of the same sex weighing 20±3 g. In each test, several dose levels which bracket the LD20 for the compound are evaluated. Ten animals are included in each dose level group, and twenty animals in the untreated control group. The test compounds are prepared and aministered as in the P388/0 protocol. The day of death for each animal is recorded, the median identified for each group and the ratios of median survival time for treated (T)/control (C) groups are calculated. The criterion for activity is T/C×100≥140%.

[4] = test system: Streptococcus pyogenes (CN10); assay: Antibacterial testing, Streptococcus pyogenes, agar dilution assay; type: cell-based
Text: as §3

Eimeria tenella = assay: Antiprotozoal screening, Eimeria tenella (in vitro); type: cell-based; conditions: read-out: Result (screen code, inhibition); for inhibition at 5 µg/mL: 5 mg/L, in vitro
Text: Antiprotozoal testing against Eimeria tenella was done using methods outlined in V. S. Latter and D. Wilson, Parasitology 79, 169 (1979).

[5] = test system: Brugia pahangi microfilaria; assay: Screening against Brugia pahangi microfilaria (in vitro); type: cell-based
Text: Anthelmintic testing against Brugia pahangi was done using methods outlined in D. A. Denham et al., Transactions of the Royal Society of Tropical Medicine and Hygiene 73, 673-676 (1979).

B16 cells = assay: Melanotic Melanoma B16 test; type: in vivo, B6C3-F1 mice; conditions: dosing as in P388/0 test, active if ≥125%
Text: as §1
B6C3-F1 mice of the same sex, weighing 20+3 g, are used for this test. A suspension of B16 cells is prepared from a non-necrotic portion of solid tumor tissue obtained from a passage mouse. One gram of tumour is homogenized in 9 mL ice-cold Earle's salts solution and filtered through 1000 mesh screen to remove debris. 0.5 mL of the resulting brei is injected intraperitoneally into each animal. Dosing is carried out as in the P388/0 and L1210 tests. Days of death are recorded for a 60 day period, and T/C ratio calculated as in the P388/0 and L1210 tests. The criterion for activity is T/C×100≥125%.

Herpes simplex 1/vero = Herpes simplex 1/vero plaque inhibition screen; type: cell-based
Text: Antiviral testing against Herpes simplex 1/vero was done using plaque inhibition methods as outlined in P. Collins and D. J. Bauer, Proc. N.Y. Acad. Sci. 284, 49 (1977) and by plaque reduction methods as outlined in P. Collins and D. J. Bauer, J. Antimicrobiol Chemotherapy 3, Supplement A, 73, (1977). The column headings labeled Score, Toxicity, and Zone of Inhibition refer to the plaque inhibition screen while the IC50 heading to the plaque reduction screen.

Compound | LD20 (LD20 in the P388/0 test) | MIC [1] [µg/mL] | MIC [2] [µg/mL] | inhibition at 40 µg/mL (Trichomonas vaginalis) [%] | MIC [3] [µg/mL] | LD50 (LD50 Tests) [mg/kg] | MIC [4] [µg/mL] | Score (Herpes simplex 1/vero) | also measured
2-((6-Bromo-1-pyrenylmethyl)amino)-2-methyl-1,3-propanediol hydrochloride and 2-((8-Bromo-1-pyrenylmethyl)amino)-2-methyl-1,3-propanediol hydrochloride [Example 17B] | 557 | – | – | – | – | – | – | – | T/C × 100% (Excluding 30 Day Survivors) (P388/0 tumor cells): +135%
CC(CO)(CO)NCc1ccc2ccc3cccc4ccc1c2c34 [Example 1A, 2-methyl-2-((1-pyrenylmethyl)amino)-1,3-propanediol hydrochloride] | 375 | ≤ 5 | 50 | 76 to 100 | 50 | 350 | – | – | T/C × 100% Excluding 30 day Survivors (L1210 cells): +129%
CC(CO)(CO)NCc1ccc2ccc3cccc4ccc1c2c34 [Example 1B, 2-methyl-2-((1-pyrenylmethyl)amino)-1,3-propanediol methanesulfonate] | – | – | – | – | – | – | – | – | T/C × 100% Excluding 60 day Survivors (Lewis Lung Carcinoma): 208%
CC(C)(CO)NCc1ccc2ccc3cccc4ccc1c2c34 [Example 2A, 2-methyl-2-((1-pyrenylmethyl)amino)propanol hydrochloride] | – | ≤ 5 | 10 | 51 to 75 | 10 | – | 10 | – | LD20 (LD20 in the P388/0 test; hydrochloride): 170; inhibition at 5 µg/mL (Eimeria tenella): 26 to 50%; MIC [5]: 3.1 µg/mL; inhibition at 3.1 µg/mL ([5]; 3.1 mg/L, read-out: Result (screen code, inhibition)): 76 to 100%
CCC(CO)(CO)NCc1ccc2ccc3cccc4ccc1c2c34 [Example 5A, 2-Ethyl-2-((1-pyrenylmethyl)amino)-1,3-propanediol hydrochloride] | 225 | 3 | 50 | 51 to 75 | 100 | 160 | 3 | – | T/C × 100% Excluding 60 day Survivors (B16 cells; 225 mg/kg): +159%
CCC(CO)NCc1ccc2ccc3cccc4ccc1c2c34 (stereo not shown) [Example 6, 2-((1-Pyrenylmethyl)amino)butanol hydrochloride] | 450 | 10 | 50 | 76 to 100 | – | 350 | – | -2 (26-50% inhibition) | –
OCC(CO)(CO)NCc1ccc2ccc3cccc4ccc1c2c34 [Example 10, 2-Hydroxymethyl-2-((1-pyrenylmethyl)amino)-1,3-propanediol hydrochloride] | 215 | > 50 | > 50 | – | ≥ 50 | 160 | 5 | – | T/C × 100% Excluding 60 day Survivors (B16 cells; 150 mg/kg): +133%; inhibition at 0.37 µg/mL (Eimeria tenella): 76 to 100%
CC(C)(O)CNCc1ccc2ccc3cccc4ccc1c2c34 [Example 12, 2-(((1-Pyrenylmethyl)amino)methyl)-2-propanol hydrochloride] | – | > 50 | > 50 | – | – | – | – | – | inhibition at 5 µg/mL (Eimeria tenella): 76 to 100%; inhibition at 12.5 µg/mL ([5]; 12.5 mg/L, read-out: Result (screen code, inhibition)): 26 to 50%
CCC(COC(C)=O)(COC(C)=O)NCc1ccc2ccc3cccc4ccc1c2c34 [Example 16, 2-Ethyl-2-((1-pyrenylmethyl)amino)-1,3-propanediol diacetate] | – | – | – | – | – | – | – | -4 (76-100% inhibition) | MTD (LD20 in the P388/0 test): 675 mg/kg
CC(=O)OCC(C)(COC(C)=O)NCc1ccc2ccc3cccc4ccc1c2c34 [Example 18, 2-methyl-2-(1-pyrenylmethyl)amino)-1,3-propanediol diacetate] | – | ≤ 10 | – | – | – | – | 30 | -3 (51-75% inhibition) | MTD (LD20 in the P388/0 test): 300 mg/kg; Zone of Inhibition (Herpes simplex 1/vero): 30
